According to patent US11208405B2, “Pyrrole derivatives as PLK1 inhibitors” (SENTINEL ONCOLOGY LIMITED, priority 2017, dated 2021):
Counter-ions that a name gives are not always drawn.

How the values were obtained:
HeLa cells = experiment: Arresting cells in mitosis (Mitotic Index, phosphorylated Histone H3 immunofluorescence); assay type: cell-based; settings: Homo sapiens, HeLa; separate experiment; read-out: EC50 in the mitotic arrest assay
Procedure, shortened: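 HeLa cells exposed 24 h to 2-fold serial compound dilutions, in triplicate, then formaldehyde-fixed and immunostained for phospho-histone H3 and MPM2 with Hoechst counterstain. High-content imaging gave the mitotic index (% pH3-positive cells); EC50 fitted from MI versus concentration.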

Kinetic solubility = assay type: physicochemical; settings: kinetic from dmso stock
cytochrome P450 1A = experiment: Cytochrome P450 inhibition, 1A; assay type: in vitro ADME
cytochrome P450 2D6 = cytochrome P450 2D6 (Homo sapiens, UniProt P10635); experiment: Cytochrome P450 inhibition, 2D6; assay type: in vitro ADME
cytochrome P450 2C9 = cytochrome P450 2C9 (Homo sapiens, UniProt P11712); experiment: Cytochrome P450 inhibition, 2C9; assay type: in vitro ADME
cytochrome P450 2C19 = cytochrome P450 2C19 (Homo sapiens, UniProt P33261); experiment: Cytochrome P450 inhibition, 2C19; assay type: in vitro ADME
[1] = system: HCT116 cells (a mutant KRAS G-13D expressing cell line); experiment: Drug resistance studies in HCT116 cells; assay type: cell-based; settings: five times the half maximal growth inhibiting amount, twenty two days
[2] = system: glioblastoma cell line 907042; experiment: Glioblastoma cancer cell viability, cell line 907042; assay type: cell-based
Method: (§1) Assay to Measure the Effects of Compounds of the Invention on Glioblastoma Cancer Cell Viability
(§2) The compound of Example 33 was tested for inhibitory activity against the glioblastoma cell lines in Table 7 below.

[3] = system: glioblastoma cell line 906871; experiment: Glioblastoma cancer cell viability, cell line 906871; assay type: cell-based
Method: as §1, §2

BMP2K = target: T1, BMP2K (Homo sapiens, UniProt Q9NSY1); experiment: Kinase selectivity assay (DiscoverX KinomeScreen), BMP2K; assay type: binding; settings: read-out: % Control
T1 construct: purchased DiscoverX
Method: (§3) The compound of Example 33 was tested for off-target activity against a panel of fifty five kinases bearing functional or structural similarity to PLK1 at a concentration of 5 μM using the DiscoverX KinomeScreen assay.

CSNK2A2 = target: T2, CSNK2A2 (Homo sapiens, UniProt P19784); experiment: Kinase selectivity assay (DiscoverX KinomeScreen), CSNK2A2; assay type: binding; settings: CSNK2A2, 5 μM; read-out: % Control
T2 construct: purchased DiscoverX
Method: as §3

GAK = target: T3, GAK (Homo sapiens, UniProt O14976); experiment: Kinase selectivity assay (DiscoverX KinomeScreen), GAK; assay type: binding; settings: read-out: % Control
T3 construct: purchased DiscoverX
Method: as §3

EIF2AK4 = experiment: Kinase selectivity assay (DiscoverX KinomeScreen), EIF2AK4; assay type: binding; settings: EIF2AK4, 5 μM
Method: as §3

GSG2 = target: T4, GSG2 (Homo sapiens, UniProt Q8TF76); experiment: Kinase selectivity assay (DiscoverX KinomeScreen), GSG2; assay type: binding; settings: GSG2, 5 μM; read-out: % Control
T4 construct: purchased DiscoverX
Method: as §3

CHUK = target: T5, CHUK (Homo sapiens, UniProt O15111); experiment: Kinase selectivity assay (DiscoverX KinomeScreen), CHUK; assay type: binding; settings: read-out: % Control
T5 construct: purchased DiscoverX
Method: as §3

NEK3 = target: T6, NEK3 (Homo sapiens, UniProt P51956); experiment: Kinase selectivity assay (DiscoverX KinomeScreen), NEK3; assay type: binding; settings: NEK3, 5 μM; read-out: % Control
T6 construct: purchased DiscoverX
Method: as §3

NEK6 = target: T7, NEK6 (Homo sapiens, UniProt Q9HC98); experiment: Kinase selectivity assay (DiscoverX KinomeScreen), NEK6; assay type: binding; settings: NEK6, 5 μM; read-out: % Control
T7 construct: purchased DiscoverX
Method: as §3

NEK7 = target: T8, NEK7 (Homo sapiens, UniProt Q8TDX7); experiment: Kinase selectivity assay (DiscoverX KinomeScreen), NEK7; assay type: binding; settings: NEK7, 5 μM; read-out: % Control
T8 construct: purchased DiscoverX
Method: as §3

NEK9 = target: T9, NEK9 (Homo sapiens, UniProt Q8TD19); experiment: Kinase selectivity assay (DiscoverX KinomeScreen), NEK9; assay type: binding; settings: NEK9, 5 μM; read-out: % Control
T9 construct: purchased DiscoverX
Method: as §3

SBK1 = target: T10, SBK1 (Homo sapiens, UniProt Q52WX2); experiment: Kinase selectivity assay (DiscoverX KinomeScreen), SBK1; assay type: binding; settings: SBK1, 5 μM; read-out: % Control
T10 construct: purchased DiscoverX
Method: as §3

STK36 = target: T11, STK36 (Homo sapiens, UniProt Q9NRP7); experiment: Kinase selectivity assay (DiscoverX KinomeScreen), STK36; assay type: binding; settings: STK36, 5 μM; read-out: % Control
T11 construct: purchased DiscoverX
Method: as §3

WEE2 = target: T12, WEE2 (Homo sapiens, UniProt P0C1S8); experiment: Kinase selectivity assay (DiscoverX KinomeScreen), WEE2; assay type: binding; settings: WEE2, 5 μM; read-out: % Control
T12 construct: purchased DiscoverX
Method: as §3

cytochrome P450 2C19, sequence (P33261 whole entry): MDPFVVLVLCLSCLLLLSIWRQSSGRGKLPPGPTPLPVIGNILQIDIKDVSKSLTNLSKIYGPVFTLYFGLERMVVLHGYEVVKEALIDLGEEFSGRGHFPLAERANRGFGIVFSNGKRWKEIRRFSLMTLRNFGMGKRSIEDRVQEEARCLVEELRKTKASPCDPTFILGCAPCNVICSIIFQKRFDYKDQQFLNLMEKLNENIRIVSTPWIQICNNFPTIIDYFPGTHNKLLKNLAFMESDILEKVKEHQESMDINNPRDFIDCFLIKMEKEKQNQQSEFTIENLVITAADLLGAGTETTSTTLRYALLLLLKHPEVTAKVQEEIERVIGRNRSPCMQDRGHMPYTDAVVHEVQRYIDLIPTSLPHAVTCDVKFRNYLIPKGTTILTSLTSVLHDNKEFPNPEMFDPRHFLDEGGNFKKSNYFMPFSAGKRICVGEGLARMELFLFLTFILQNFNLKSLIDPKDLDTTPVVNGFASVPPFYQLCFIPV
T2 sequence (P19784 whole entry): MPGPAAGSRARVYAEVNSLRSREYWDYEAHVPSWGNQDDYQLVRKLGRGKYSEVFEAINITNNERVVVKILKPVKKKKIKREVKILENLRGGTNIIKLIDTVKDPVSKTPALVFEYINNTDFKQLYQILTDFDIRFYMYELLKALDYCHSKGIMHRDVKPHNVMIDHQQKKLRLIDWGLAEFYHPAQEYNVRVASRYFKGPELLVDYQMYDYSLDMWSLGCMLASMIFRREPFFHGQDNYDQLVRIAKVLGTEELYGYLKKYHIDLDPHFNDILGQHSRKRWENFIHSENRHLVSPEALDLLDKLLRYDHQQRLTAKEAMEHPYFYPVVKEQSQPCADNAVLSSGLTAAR
T12 sequence (P0C1S8 whole entry): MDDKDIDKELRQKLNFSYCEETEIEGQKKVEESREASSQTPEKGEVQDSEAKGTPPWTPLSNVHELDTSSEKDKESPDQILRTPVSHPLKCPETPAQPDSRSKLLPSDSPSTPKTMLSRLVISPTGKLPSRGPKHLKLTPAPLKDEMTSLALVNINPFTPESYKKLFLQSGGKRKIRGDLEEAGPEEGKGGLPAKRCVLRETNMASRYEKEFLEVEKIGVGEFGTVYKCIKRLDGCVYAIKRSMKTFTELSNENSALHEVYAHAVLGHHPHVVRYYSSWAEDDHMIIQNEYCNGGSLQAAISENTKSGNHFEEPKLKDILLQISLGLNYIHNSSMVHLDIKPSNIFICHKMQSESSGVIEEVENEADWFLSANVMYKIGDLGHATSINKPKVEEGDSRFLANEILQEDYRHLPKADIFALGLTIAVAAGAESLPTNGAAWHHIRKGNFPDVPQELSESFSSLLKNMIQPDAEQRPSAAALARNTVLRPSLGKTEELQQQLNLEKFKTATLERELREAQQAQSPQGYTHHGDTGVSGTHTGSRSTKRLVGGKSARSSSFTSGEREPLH
cytochrome P450 2C9, sequence (P11712 whole entry): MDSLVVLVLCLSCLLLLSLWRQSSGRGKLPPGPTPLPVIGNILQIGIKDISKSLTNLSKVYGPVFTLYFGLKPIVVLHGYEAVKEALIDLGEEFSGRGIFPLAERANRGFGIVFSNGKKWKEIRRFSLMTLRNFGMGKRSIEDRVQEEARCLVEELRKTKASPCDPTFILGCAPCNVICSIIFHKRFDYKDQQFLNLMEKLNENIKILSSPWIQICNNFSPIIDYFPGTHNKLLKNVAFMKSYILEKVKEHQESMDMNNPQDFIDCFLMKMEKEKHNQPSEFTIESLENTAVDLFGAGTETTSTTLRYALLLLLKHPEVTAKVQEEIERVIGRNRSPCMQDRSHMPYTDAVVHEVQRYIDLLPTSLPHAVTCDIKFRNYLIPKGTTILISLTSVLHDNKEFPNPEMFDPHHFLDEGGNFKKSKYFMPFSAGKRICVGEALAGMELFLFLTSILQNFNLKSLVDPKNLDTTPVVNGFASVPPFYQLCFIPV
T8 sequence (Q8TDX7 whole entry): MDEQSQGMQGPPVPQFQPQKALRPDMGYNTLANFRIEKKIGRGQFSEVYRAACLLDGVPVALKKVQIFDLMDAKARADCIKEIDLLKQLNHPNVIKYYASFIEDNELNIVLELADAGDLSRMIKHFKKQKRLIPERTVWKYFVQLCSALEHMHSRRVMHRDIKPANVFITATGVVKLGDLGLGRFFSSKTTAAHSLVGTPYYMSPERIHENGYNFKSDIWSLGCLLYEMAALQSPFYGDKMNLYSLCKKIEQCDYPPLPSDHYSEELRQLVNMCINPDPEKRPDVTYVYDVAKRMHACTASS
T5 sequence (O15111 whole entry): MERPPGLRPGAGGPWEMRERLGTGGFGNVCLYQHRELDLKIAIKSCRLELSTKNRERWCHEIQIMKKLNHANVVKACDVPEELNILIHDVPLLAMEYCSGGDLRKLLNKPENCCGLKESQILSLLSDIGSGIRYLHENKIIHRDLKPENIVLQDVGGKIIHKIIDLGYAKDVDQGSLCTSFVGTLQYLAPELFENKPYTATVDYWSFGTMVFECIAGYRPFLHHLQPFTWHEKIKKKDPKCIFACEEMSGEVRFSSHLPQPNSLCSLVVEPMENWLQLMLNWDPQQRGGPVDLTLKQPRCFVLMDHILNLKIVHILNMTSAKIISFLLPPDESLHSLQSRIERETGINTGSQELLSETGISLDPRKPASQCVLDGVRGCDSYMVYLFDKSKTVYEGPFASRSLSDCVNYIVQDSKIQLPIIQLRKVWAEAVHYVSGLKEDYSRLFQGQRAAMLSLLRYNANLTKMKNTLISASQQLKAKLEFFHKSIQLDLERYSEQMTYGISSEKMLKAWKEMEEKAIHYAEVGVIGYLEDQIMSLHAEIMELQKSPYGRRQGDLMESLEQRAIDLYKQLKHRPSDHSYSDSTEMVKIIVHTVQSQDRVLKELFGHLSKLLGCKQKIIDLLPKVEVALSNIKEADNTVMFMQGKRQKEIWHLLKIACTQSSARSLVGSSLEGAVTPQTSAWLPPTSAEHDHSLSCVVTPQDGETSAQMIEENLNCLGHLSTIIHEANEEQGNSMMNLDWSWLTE
T1 sequence (Q9NSY1 whole entry): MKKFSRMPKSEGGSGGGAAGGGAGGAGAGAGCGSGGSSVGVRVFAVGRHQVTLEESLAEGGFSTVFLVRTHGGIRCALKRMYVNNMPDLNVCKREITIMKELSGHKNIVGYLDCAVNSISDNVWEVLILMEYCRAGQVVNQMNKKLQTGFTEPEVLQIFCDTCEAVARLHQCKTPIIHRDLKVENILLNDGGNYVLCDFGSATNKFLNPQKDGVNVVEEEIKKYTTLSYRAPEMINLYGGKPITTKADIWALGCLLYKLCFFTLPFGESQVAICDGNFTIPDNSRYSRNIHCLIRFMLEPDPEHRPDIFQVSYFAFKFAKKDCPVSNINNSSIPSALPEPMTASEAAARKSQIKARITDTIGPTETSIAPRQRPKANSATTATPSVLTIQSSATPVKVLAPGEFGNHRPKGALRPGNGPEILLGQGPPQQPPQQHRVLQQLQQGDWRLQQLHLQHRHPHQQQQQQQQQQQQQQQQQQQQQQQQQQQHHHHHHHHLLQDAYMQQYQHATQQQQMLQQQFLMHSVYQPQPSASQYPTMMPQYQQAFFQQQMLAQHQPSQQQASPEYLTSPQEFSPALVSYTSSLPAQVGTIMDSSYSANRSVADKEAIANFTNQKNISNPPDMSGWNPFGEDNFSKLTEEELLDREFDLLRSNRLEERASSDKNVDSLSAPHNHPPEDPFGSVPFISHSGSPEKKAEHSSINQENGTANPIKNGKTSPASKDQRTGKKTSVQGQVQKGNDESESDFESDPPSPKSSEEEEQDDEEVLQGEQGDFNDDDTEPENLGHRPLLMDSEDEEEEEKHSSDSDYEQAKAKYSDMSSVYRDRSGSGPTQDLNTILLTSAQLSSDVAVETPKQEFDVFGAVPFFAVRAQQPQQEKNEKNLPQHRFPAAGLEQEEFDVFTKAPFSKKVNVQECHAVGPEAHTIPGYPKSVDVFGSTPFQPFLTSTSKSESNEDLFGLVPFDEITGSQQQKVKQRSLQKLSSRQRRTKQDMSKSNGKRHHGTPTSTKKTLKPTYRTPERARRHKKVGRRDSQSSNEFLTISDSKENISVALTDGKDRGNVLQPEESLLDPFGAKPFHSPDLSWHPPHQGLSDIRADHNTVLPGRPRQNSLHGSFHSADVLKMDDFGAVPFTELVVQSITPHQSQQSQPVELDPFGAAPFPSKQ
T7 sequence (Q9HC98 whole entry): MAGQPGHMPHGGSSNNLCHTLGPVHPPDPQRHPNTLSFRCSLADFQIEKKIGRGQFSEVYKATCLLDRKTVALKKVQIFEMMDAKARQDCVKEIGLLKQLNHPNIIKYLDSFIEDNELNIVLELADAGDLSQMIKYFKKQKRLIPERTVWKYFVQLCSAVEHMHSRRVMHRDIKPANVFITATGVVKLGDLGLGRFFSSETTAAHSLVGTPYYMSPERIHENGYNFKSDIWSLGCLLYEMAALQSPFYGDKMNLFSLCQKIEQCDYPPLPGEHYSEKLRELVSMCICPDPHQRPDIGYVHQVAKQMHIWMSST
T10 sequence (Q52WX2 whole entry): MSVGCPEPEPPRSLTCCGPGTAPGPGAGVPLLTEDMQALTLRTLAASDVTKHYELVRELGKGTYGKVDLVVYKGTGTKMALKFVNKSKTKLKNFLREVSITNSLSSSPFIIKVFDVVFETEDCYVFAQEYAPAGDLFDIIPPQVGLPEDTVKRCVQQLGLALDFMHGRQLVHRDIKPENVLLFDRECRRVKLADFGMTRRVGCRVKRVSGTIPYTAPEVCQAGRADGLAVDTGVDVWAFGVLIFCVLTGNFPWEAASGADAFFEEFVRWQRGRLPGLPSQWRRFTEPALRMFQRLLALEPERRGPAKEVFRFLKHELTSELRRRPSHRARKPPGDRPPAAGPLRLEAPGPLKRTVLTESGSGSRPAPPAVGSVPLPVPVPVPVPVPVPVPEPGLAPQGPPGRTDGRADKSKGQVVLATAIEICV

In the case of CN(C)CCNC(=O)c1ccc(-c2ccc(-c3ccc(Cl)cc3)n2-c2ccccc2C(F)(F)F)cc1 [Example 33, 4-[5-(4-chlorophenyl)-1-[2-(trifluoromethyl)phenyl]pyrrol-2-yl]-N-[2-(dimethylamino)ethyl]benzamide Hydrochloride], the EC50 (HeLa cells) is reported as 61 ± 10 nM, the solubility kinetic (Kinetic solubility) is reported as 32 µM and the “cytochrome P450 inhibition 1A” value (cytochrome P450 1A) is reported as > 10 µM. The “cytochrome P450 inhibition 2D6” value (cytochrome P450 2D6) was > 10 µM, the “cytochrome P450 inhibition 2C9” value (cytochrome P450 2C9) was > 10 µM and the “cytochrome P450 inhibition 2C19” value (cytochrome P450 2C19) was > 10 µM. The “formation of drug-resistant colonies” value [1] was “not”, the IC50 [2] was 71 nM and the IC50 [3] was 283 nM. It also gave a remaining activity at 5 µM (BMP2K) of 85%, a remaining activity at 5 µM (CSNK2A2) of 92% and a remaining activity at 5 µM (GAK) of 100%. The “% Control” value (EIF2AK4) was 97%, the remaining activity at 5 µM (GSG2) was 77% and the remaining activity at 5 µM (CHUK) was 100%. The remaining activity at 5 µM (NEK3) was 74%, the remaining activity at 5 µM (NEK6) was 99% and the remaining activity at 5 µM (NEK7) was 79%. It also gave a remaining activity at 5 µM (NEK9) of 92%, a remaining activity at 5 µM (SBK1) of 61% and a remaining activity at 5 µM (STK36) of 91%. The remaining activity at 5 µM (WEE2) was 92%.
